Calls of active or inactive are those of the source.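 The calls were made as follows: active = compounds giving half or more protection of infected cells from virus-caused growth loss, again on retest; inactive = the rest.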 Where a SMILES comes first, the peptide text is derived from it.
Tested on: CEM cells HIV-1 protection, formazan growth assay
Experiment: NCI AIDS Antiviral Assay
Details: for IC50: measured here: growth of uninfected CEM cells
Procedure, shortened: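 Human CEM cells, uninfected and HIV-1-infected, received five drug concentrations, and growth was read by soluble formazan assay. Compounds giving at least 50% protection were retested; reproducible 100% protection defined confirmed active.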

SMILES | EC50 [µM] | IC50 [µM] | outcome
CC(C)CC(NC=O)C(=O)NC(Cc1ccccc1)NC(=O)CNC(=O)C(C)NC(=O)OC(C)(C)C (centres undefined) | > 200 | > 200 | 
COc1cc2c(cc1OC)C(=O)N1CCCC1C(=O)S2 (centres undefined) |  |  | inactive
Cc1c(-c2ccccc2)sc(N)c1C#N |  |  | inactive
Nc1ncnc2c1sc(=S)n2-c1ccccc1 | > 52.5 | > 52.5 | 
COC(=O)[C@@H]1CO[C@H](C(C)(C)C)N1C(=O)N1C=CC(=O)C[C@H]1C | > 200 | > 200 | 
CCOC(=O)C(C1=C(O)c2ccccc2C(=O)C1=O)C1=C(O)c2ccccc2C(=O)C1=O | > 200 | 67.6 | 
CCOC(=O)CN1C(=O)Cc2ccccc21 | > 200 | 97.7 | 
CCOC(=O)/N=C(\N)SCc1ccccc1 |  |  | inactive
Cc1cc(S(=O)(=O)N=C2N(Cc3ccccc3)CCN2Cc2ccccc2)c(S)cc1Cl | > 200 | > 200 | 
O=C1OC(=Nc2ccccc2Cl)c2ccccc21 | > 200 | > 200 | 
O=[N+]([O-])c1cccc(/C=N\NS(=O)(=O)c2ccc(Cl)cc2)c1O | > 363 | 61.7 | 
CCC(C)C(NC(=O)C(CC(C)C)NC(=O)C(N)Cc1c[nH]c2ccccc12)C(=O)NC(Cc1c[nH]c2ccccc12)C(=O)O (centres undefined) (H-WLIW-OH; configuration not given here) | > 407 | > 407 | 
CCOP(=O)(OCC)C(N)C(C)CC (centres undefined) | > 479 | > 479 | 
COC(=O)C1=C2CCC(=O)[C@@]2(C)C(OC(C)=O)C=CC1 (some centres undefined) |  |  | inactive
CC1(C)C(=O)N(O)C(C)(C)N1O | > 200 | > 200 | 
COc1cc(C(=O)O)c(-c2cc3c(cc2C=O)OCO3)c(OC)c1OC | > 692 | > 692 | 
Nn1c(SCC(=O)O)nc2ccccc2c1=O | > 200 | > 200 | 
COc1cc(C2c3cc(O)c(OC)cc3C[C@@H]3C(=O)OCC23)ccc1O (some centres undefined) | > 263 | > 263 | 
CCOC(=O)/C(C#N)=C\c1ccc(N(CCC(=O)O)CCC(=O)O)c(I)c1 | > 501 | > 501 | 
O=c1[nH]c(=O)n(COCc2ccccc2)c2ccccc12 | > 200 | 174 | 
CN(C)S(=O)(=O)c1c(N)ncn1C | > 1230 | > 1230 | 
C=C/C=C/NC(=O)OCc1ccccc1 |  |  | inactive

SMILES | EC50 [µM] | IC50 [µM] | outcome
Cc1c(NC(=O)CCl)c(=O)oc2c(C)c3occc(=O)c3cc12 | > 40.7 | 0.204 | 
O=C1/C(=C\c2ccccn2)c2ccccc2N1Cc1ccccc1 | > 22.9 | 12.6 | 
CC(C)(CO)CNc1nc(N)nc(Cl)c1/C=N/O | > 200 | 5.5 | 
NC(=O)CC(N)C(=O)NC(Cc1ccccc1)C(=O)NC(Cc1ccccc1)NC(=O)C(Cc1c[nH]c2ccccc12)C(=O)O (centres undefined) | > 200 | > 200 | 
CC(C)(NO)/C(=N\O)c1ccco1 | > 200 | > 200 | 
CCc1cc2c(Nc3ccccc3)c3c(nc2s1)CCCC3 | > 85.1 | > 85.1 | 
O=[N+]([O-])c1cc2ccc(N(CCO)CCO)nc2nc1N(CCO)CCO | > 200 | > 200 | 
O=C(O)c1nc2cc(Cl)ccc2[nH]c1=O | > 200 | > 200 | 
CC1OC(n2cc(C(F)(F)F)c(=O)[nH]c2=O)C=CC1O (centres undefined) | > 851 | 148 | 
CC(C)=CCN1c2ccccc2NC(=O)CC1C (centres undefined) | 7.94 | 91.2 | 
COc1ccc(/C(=N/NC(N)=O)C(c2ccc(OC)cc2)C2C(=O)Oc3ccccc32)cc1 (centres undefined) | > 30.2 | > 30.2 | 
Cc1c(Cl)ccc2c1NC(=O)C2(O)C(C(=O)c1ccccc1)c1ccccc1 (centres undefined) | > 66.1 | > 66.1 | 
Cc1ccc(N=C2N=C(N3CC(C)OC(C)C3)c3ccccc32)cc1 (centres undefined) | > 107 | 26.3 | 
CC(Cn1c(=O)oc2ccccc21)N(C)C (centres undefined) | > 200 | > 200 | 
CCCCCC/C=C\CCCCCCCCCC1=CC(=O)C=C(OC)C1=O | > 9.55 | > 9.55 | 
O=C1/C(=C/c2ccc(Br)s2)NC(=S)N1CN1CCOCC1 | > 200 | 36.3 | 
CCN1C[C@]2(COC)CCC(O)C34[C@@H]5C[C@@H]6C(O)[C@@H]5[C@](O)(C[C@@H]6OC)[C@@](O)([C@H]13)[C@@H](OC)[C@@H]42 (some centres undefined) |  |  | inactive
Clc1cc(OC23CC4CC(CC(C4)C2)C3)nc(Cl)n1 | > 100 | 45.7 | 
Cc1ccc(NC(=O)C(=O)Cc2cccc[n+]2[O-])cc1C | > 91.2 | > 91.2 | 
O=C1c2ccccc2C(=O)[C@@]23O[C@@]12C1(Oc2cccc4cccc(c24)O1)[C@@H]1O[C@@H]1[C@@H]3O | > 20 | 1.15 | 
C=CCC1CCN(C=C)C1=O (centres undefined) | > 1660 | 1580 | 
COC1CC(C)(NC(C)=O)C2OC(c3ccccc3)OCC2O1 (centres undefined) | > 200 | > 200 | 

SMILES | EC50 [µM] | IC50 [µM] | outcome
CC1=CC2(C)C=C(C)C3(OC(c4ccccc4)=C(C#N)C3=N2)C1=O (centres undefined) | > 70.8 | 34.7 | 
CC12O[C@]3([C@H](C(=O)N4CCOC43C)[C@H]1Cl)[C@H]1O[C@H]12 (some centres undefined) |  |  | inactive
c1ccc(C2=NN(c3ccccc3)C3(S2)SC(c2ccccc2)(c2ccccc2)c2ccccc23)cc1 (centres undefined) | > 50.1 | > 50.1 | 
CCCCCCCC/C=C\CCCCCCCCOP(=O)(O)OCCC=C(c1cc(Cl)c(O)c(C(=O)O)c1)c1cc(Cl)c(O)c(C(=O)O)c1 | > 77.6 | 69.2 | 
O=C1CCC(C(=O)O)C2=C1CCCC2 (centres undefined) |  |  | inactive
CC(C)(C#N)C(C)(C)SSC(C)(C)C(C)(C)C#N | > 178 | > 178 | 
CN(C)CCCNC(=O)c1cc(NC(=O)c2cc(NC(=O)[C@@H]3C[C@H]3C(=O)Nc3cc(C(=O)Nc4cc(C(=O)NCCCN(C)C)n(C)c4)n(C)c3)cn2C)cn1C |  |  | inactive
CCN(CC)c1c([N+](=O)[O-])c(=O)nc2ccccn12 | > 200 | 105 | 
CN(C)c1nc(N(C)C)nc(N2C(=O)c3ccccc3C2=O)n1 | > 100 | 0.389 | 
Cc1ccc(-c2csc(=Nc3ccccc3)n2NC(=O)c2ccncc2)cc1 | > 200 | 22.9 | 
COC(=O)C1C=CCON2CCc3c(n(S(=O)(=O)c4ccccc4)c4ccccc34)C12 (centres undefined) | > 22.9 | > 22.9 | 
C/C(=N\N(C)C)C(CN1CCCCC1)C(c1ccccc1)c1c(O)c2ccccc2oc1=O (centres undefined) | > 69.2 | > 69.2 | 
COc1ccc2c(c1)CCCN1CCc3cc(OC)c(OC)cc3C21 (centres undefined) | > 200 | > 200 | 
NC(=S)N1N=C2CCCCCC[C@@H]2[C@H]1c1ccccc1 |  |  | inactive
CC(=O)OCC1OC(N2C(c3ccccc3)=CC(c3cccs3)C(C#N)=C2S)C(OC(C)=O)C(OC(C)=O)C1OC(C)=O (centres undefined) | 81.3 | > 200 | 
N#CC12CC3=C(N=C1NC1=C(CCc4ccccc41)C2)c1ccccc1CC3 (centres undefined) | > 200 | 3.02 | 
Cc1cc(S(=O)(=O)O)c(NC(=O)C(=O)C2C=CCS2(=O)=O)cc1Cl (centres undefined) | > 631 | > 631 | 
CC1(C)N=C(/C=N/O)C(C)(C)N1O | > 200 | > 200 | 
CC1=N/C(=C\c2ccc(C)cc2)C(=O)O1 | > 129 | > 129 | inactive
CN1BN(C)BN(C)B1 | > 2040 | > 2040 | 
O=C(CN1CCN(c2ccccc2)CC1)c1ccc2[nH]c(=O)oc2c1 | > 200 | > 200 | 
CC(C)C(O)(C(=O)OCN1C(=O)C2C3C=CC(C2C1=O)C1C2C(=O)N(COC(=O)C(O)(C(C)C)C(C)O)C(=O)C2C31)C(C)O (centres undefined) | > 200 | > 200 | 

SMILES | EC50 [µM] | IC50 [µM] | outcome
C[C@H](CCC1=NCCN1)[C@H]1CC[C@H]2[C@@H]3CC[C@@H]4C[C@H](O)CC[C@]4(C)[C@H]3CC[C@]12C | > 100 | 13.8 | 
COc1ccc(C2c3cc4c(cc3OC(N3CCOCC3)C2C)OCO4)cc1OC (centres undefined) | > 200 | 7.76 | 
C[N+]1(CC(=O)c2ccc(O)c(O)c2)CCOCC1 | > 200 | > 200 | 
Cc1ccc(/C=C/C(=O)Oc2ccc(/C=C3\CCC/C(=C\c4ccc(OC(=O)/C=C/c5ccc(C)cc5)cc4)C3=O)cc2)cc1 | > 100 | > 100 | 
CO/N=C1/c2sccc2[C@H](NC(=O)C(F)(F)F)[C@@H]1O | > 200 | > 200 | 
O=C(N/N=C/c1ccco1)c1ccc(OCc2nc3ccccc3[nH]2)cc1 | > 200 | 83.2 | 
Cc1cn(C2CCCCC2O)c(=O)[nH]c1=O (centres undefined) | > 302 | > 302 | 
Cc1cc(=O)oc2c(C)c3oc(CBr)c(Br)c3cc12 | > 200 | 2.24 | 
Cc1ccc(N=C2S/C(=C3/CCC=C3N3CCOCC3)N(c3ccc(Cl)cc3)C2=Nc2ccc(C)cc2)cc1 | > 200 | > 200 | 
COC(=O)N/N=C(\c1ccccc1)c1ccc(OC)cc1 | > 200 | 112 | 
Cc1coc2c1C[C@@]1(C)[C@H](CCC[C@@H]1C)[C@H]2O | > 200 | 27.5 | 
CN1C(=O)C(O)CC1c1cccc(F)c1 (centres undefined) | > 200 | > 200 | 
CC1=NN(C(=O)c2ccccc2Br)C(=O)C1N=Nc1ccccc1C(=O)O (centres undefined) |  |  | inactive
C/C(=C\CNc1ncnc2c1ncn2C1CCCCO1)COP(=O)(O)O (centres undefined) |  |  | inactive
O=C(Cc1nc2ccccc2c(=O)n1-c1c(Cl)cccc1Cl)c1ccncc1 | > 12.6 | > 12.6 | 
COC(=O)NC1=Nc2ccccc2N(C(=O)Oc2ccccc2)S1 | > 75.9 | 9.33 | 
N/C(=N\C(=S)N1CCCCC1)N1CCCCC1 |  |  | inactive
COc1ccc(/C=C2\C(=O)N(C(=O)Cc3ccccc3)N=C2C)cc1OC | > 51.3 | > 51.3 | 
O=C(Nc1ccccc1)N1N=C(c2ccccc2)C1c1ccccc1 (centres undefined) | > 200 | 24.5 | 
O=C(c1ccc([N+](=O)[O-])cc1)N1CCCC1 | > 200 | > 200 | 
COC(=O)c1ccc(CSc2ccccc2C(=O)O)cc1 | > 603 | 427 | 
Cc1ccc(/C=C2\CN(C)CC3=C2NC(=S)NC3c2ccc(C)cc2)cc1 (centres undefined) | > 200 | 25.1 | 

From PubChem BioAssay AID179 (DTP/NCI, 2004)
